Results taken from PubChem BioAssay AID248 (DTP/NCI, 2004).
Values joined by “and” are separate entries in the source; they are usually repeats but may differ in a detail not shown here. Equal entries are not always repeated. Inconclusive results and toxic doses are left out. Cut-off read from the data, not from the text of the source: active = T/C of 150% or more; inactive = T/C below 125%.

Test system: L1210 leukemia ip in BDF1 mice, survival T/C
Assay: NCI In Vivo Anticancer Drug Screen. Data for tumor model L1210 Leukemia (intraperitoneal) in B6D2F1 (BDF1) mice
Conditions: endpoint: mean survival time, higher = longer survival
Procedure, shortened: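 Transplanted-tumor mice were given test agent; controls received vehicle only. Survival readings from the two groups were divided (treated over control).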

[1] = dose: 100.0 mg/kg/injection, schedule: Q01DX001 (ip), vehicle: saline
[2] = dose: 200.0 mg/kg/injection, schedule: Q01DX001 (ip), vehicle: saline
[3] = dose: 400.0 mg/kg/injection, schedule: Q01DX001 (ip), vehicle: saline
[4] = dose: 100.0 mg/kg/injection, schedule: Q04DX002 (ip), vehicle: saline
[5] = dose: 200.0 mg/kg/injection, schedule: Q04DX002 (ip), vehicle: saline
[6] = dose: 400.0 mg/kg/injection, schedule: Q04DX002 (ip), vehicle: saline
[7] = dose: 100.0 mg/kg/injection, schedule: Q01DX009 (ip), vehicle: saline with Tween-80
[8] = dose: 200.0 mg/kg/injection, schedule: Q01DX009 (ip), vehicle: saline with Tween-80
[9] = dose: 50.0 mg/kg/injection, schedule: Q01DX009 (ip), vehicle: saline with Tween-80
[10] = dose: 100.0 mg/kg/injection, schedule: Q01DX009 (ip), vehicle: saline

Measured: T/C

O=C1NS(=O)(=O)CS(=O)(=O)N1
inactive: [1] 108 % of control | [2] 104 % of control | [3] 101 % of control

CCCC(=O)N1CCCC1
inactive: [4] 107 % of control | [5] 103 % of control | [6] 111 % of control

C=CCc1ccccc1C
inactive: [1] 106 % of control | [2] 102 % of control | [3] 101 % of control

Oc1ccc2ccccc2c1N=Nc1ccc(N=Nc2ccccc2)cc1
inactive: [7] 102 % of control | [8] 106 % of control | dose: 400.0 mg/kg/injection, schedule: Q01DX009 (ip), vehicle: saline with Tween-80 102 % of control

COc1ccc(CCCC(C)(C)O)cc1
inactive: [9] 94 % of control | [7] 97 % of control

Cc1cn(CCC(N)C(=O)O)c(=O)[nH]c1=O (centres undefined)
inactive: [10] 103 % of control | [4] 106 % of control | dose: 200.0 mg/kg/injection, schedule: Q01DX009 (ip), vehicle: saline 117 % of control | [5] 89 % of control | dose: 400.0 mg/kg/injection, schedule: Q01DX009 (ip), vehicle: saline 95 % of control | [6] 113 % of control

O=C1CC(=P(c2ccccc2)(c2ccccc2)c2ccccc2)C(=O)O1
inactive: [9] 103 % of control | [7] 103 % of control | dose: 100.0 mg/kg/injection, schedule: Q04DX003 (ip), vehicle: Klucel (hydroxypropylcellulose) (HPC) 93 % of control | [8] 100 % of control | dose: 200.0 mg/kg/injection, schedule: Q04DX003 (ip), vehicle: Klucel (hydroxypropylcellulose) (HPC) 95 % of control | dose: 400.0 mg/kg/injection, schedule: Q04DX003 (ip), vehicle: Klucel (hydroxypropylcellulose) (HPC) 93 % of control

Cc1cc(C)c(O)c(CN(C)C)c1.[Cu+2]
inactive: dose: 50.0 mg/kg/injection, schedule: Q01DX001 (ip), vehicle: saline 98 % of control | [1] 98 % of control

O=C1CCN(CCN2CCC(=O)N(Cc3ccccc3)C2=S)C(=S)N1Cc1ccccc1
inactive: dose: 100.0 mg/kg/injection, schedule: Q04DX002 (ip), vehicle: Klucel (hydroxypropylcellulose) (HPC) 100 % of control | dose: 200.0 mg/kg/injection, schedule: Q04DX002 (ip), vehicle: Klucel (hydroxypropylcellulose) (HPC) 107 % of control | dose: 400.0 mg/kg/injection, schedule: Q04DX002 (ip), vehicle: Klucel (hydroxypropylcellulose) (HPC) 96 % of control

CSc1ncnc2c1c(Br)cn2C1OC(CO)C(O)C1O (centres undefined)
inactive: [1] 100 % of control | [2] 108 % of control | [3] 114 % of control

ClC1CCC[N-]C1.ClC1CCC[N-]C1.[Cl][Pt+2][Cl] (centres undefined)
inactive: dose: 50.0 mg/kg/injection, schedule: Q04DX003 (ip), vehicle: saline with Tween-80 102 % of control | dose: 100.0 mg/kg/injection, schedule: Q04DX003 (ip), vehicle: saline with Tween-80 104 % of control | dose: 200.0 mg/kg/injection, schedule: Q04DX003 (ip), vehicle: saline with Tween-80 102 % of control

COC(=O)C1CC(=O)C2(C)CCc3c(ccc4cc(OC)ccc34)C12 (centres undefined)
inactive: dose: 100.0 mg/kg/injection, schedule: Q01DX009 (sc), vehicle: steriod suspending solution 103 % of control | dose: 100.0 mg/kg/injection, schedule: Q04DX003 (sc), vehicle: steriod suspending solution 102 % of control | dose: 200.0 mg/kg/injection, schedule: Q01DX009 (sc), vehicle: steriod suspending solution 93 % of control | dose: 200.0 mg/kg/injection, schedule: Q04DX003 (sc), vehicle: steriod suspending solution 86 % of control | dose: 400.0 mg/kg/injection, schedule: Q01DX009 (sc), vehicle: steriod suspending solution 88 % of control | dose: 400.0 mg/kg/injection, schedule: Q04DX003 (sc), vehicle: steriod suspending solution 94 % of control

Cc1c[n+]([O-])ccc1[N+](=O)[O-]
inactive: dose: 25.0 mg/kg/injection, schedule: Q01DX009 (ip), vehicle: saline 90 % of control | dose: 25.0 mg/kg/injection, schedule: Q04DX003 (ip), vehicle: saline 105 % of control | dose: 50.0 mg/kg/injection, schedule: Q01DX009 (ip), vehicle: saline 90 % of control | dose: 50.0 mg/kg/injection, schedule: Q04DX003 (ip), vehicle: saline 97 % of control | [10] 88 % of control | dose: 100.0 mg/kg/injection, schedule: Q04DX003 (ip), vehicle: saline 90 % of control and 91 % of control
